Test results taken from patent US8748423B2, “Compositions and methods for the prevention and treatment of cancer” (Kinex Pharmaceuticals, LLC, priority 2010, dated 2014).

Assays:
[1] = system: colon tumor cell lines KM12; test: standard tumor growth inhibition assay, KM12; type: cell-based; settings: Homo sapiens, KM12, read-out: GI50 (KM12)
Experimental: (§1) These GI50's were determined using the standard tumor growth inhibition assays, similar to that described in detail for the HT29 cell line above, and the following cell lines: colon tumor cell lines KM12, lung cancer cell line H460 and lung cancer cell line A549 (all are NCI standard tumor cell lines).

[2] = system: lung cancer cell line H460; test: standard tumor growth inhibition assay, H460; type: cell-based; settings: Homo sapiens, NCI-H460, read-out: GI50 (H460)
Experimental: as §1

c-Src 3T3 cells = test: BrdU cell growth inhibition assay, c-Src 3T3; type: cell-based, mouse
Experimental: (§2) The GI50s for several of the compounds of the invention were assayed as described herein.
The c-Src 3T3 is a mouse fibroblast NIH 3T3 normal cell line that has been transfected with a point-mutant of human c-Src wherein tyrosine 527 has been converted to a phenylalanine. This mutation results in “constitutively active” c-Src because phosphorylation on tyrosine 527 results in auto-inhibition of Src by having it fold back on its own SH2 domain. With a Phe there, this phosphorylation can't occur and therefore auto-inhibition can't occur. Thus, the always fully active mutant Src then converts the normal mouse fibroblasts into rapidly growing tumor cells. […]
In the BrdU Assay for cell growth inhibition, quantitation of cell proliferation was based on the measurement of BrdU incorporation during DNA synthesis. […]
The growth inhibition (GI) is determined from the formula GI=(T0−Tn×100/T0−CONn) where T0 is the BrdU growth of untreated cells at time “0”, Tn is the BrdU growth of treated cells at day “n” and CONn is the control BrdU growth of control cells at day “n”. […]
Seeded 96 well plates were allowed to attach overnight for 18-24 hours, either at 37° C. and 5% CO2 for HT-29 or at 37° C. and 10% CO2 for c-Src 3T3. Approx 18-24 hours after seeding, the initial growth of cells (T0) was determined for untreated cells using the BrdU assay. […]

Daoy = test: brain tumor cell line growth inhibition, Daoy; type: cell-based; settings: Homo sapiens, desmoplastic cerebellar medulloblastoma
Experimental: (§3) These GI50s were determined using standard tumor growth inhibition assays.

SK-N-MC = test: brain tumor cell line growth inhibition, SK-N-MC; type: cell-based; settings: Homo sapiens, neuroepithelioma
Experimental: as §3

SW1088 = test: brain tumor cell line growth inhibition, SW1088; type: cell-based; settings: Homo sapiens; SW1088, astrocytoma
Experimental: as §3

LN-18 = test: brain tumor cell line growth inhibition, LN-18; type: cell-based; settings: Homo sapiens; LN-18, glioblastoma; glioma
Experimental: as §3

SK-N-FI = test: brain tumor cell line growth inhibition, SK-N-FI; type: cell-based; settings: Homo sapiens, neuroblastoma
Experimental: as §3

U87 = test: brain tumor cell line growth inhibition, U87; type: cell-based; settings: Homo sapiens, U-87 MG; U87, glioblastoma; astrocytoma
Experimental: as §3

GL261 = test: brain tumor cell line growth inhibition, GL261; type: cell-based; settings: GL261, mouse glioblastoma
Experimental: as §3

[3] = body weight in GL261 glioma survival study; type: in vivo, C57BL/6 mice
Experimental: (§4) The studies were conducted in C57BL/6 mice. GL261 glioma cells (1×10^5 in 5 μl DMEM) were implanted intracranial coordinates: bregma, lateral 2.0 mm, anterior 1.2 mm, 3.0 mm depth dura. Treatment was initiated 3 days post implantation.
FIGS. 2A-F show the weight gain in each of the C57BL/6 mice in the different treatment groups. The average weight at endpoint for each of the treatment groups is shown below in Table 12. FIG. 3 is a graph showing the average weights over a 40-day period for each of the treatment groups.

HT29 cell line = test: BrdU cell growth inhibition assay, HT-29; type: cell-based; settings: Homo sapiens
Experimental: as §2
The HT29 cell line is a NCI standard human colon carcinoma cell line. […] HT29 cells were routinely cultured in McCoy's 5A medium supplemented with Fetal Bovine Serum (1.5% v/v) and L-glutamine (2 mM).
In the BrdU Assay for cell growth inhibition, quantitation of cell proliferation was based on the measurement of BrdU incorporation during DNA synthesis. The Cell Proliferation ELISA BrdU assay kit (colorimetric) was obtained from Roche Applied Science and performed as per vendor instructions.
The growth inhibition (GI) is determined from the formula GI=(T0−Tn×100/T0−CONn) where T0 is the BrdU growth of untreated cells at time “0”, Tn is the BrdU growth of treated cells at day “n” and CONn is the control BrdU growth of control cells at day “n”. The GI50 was extrapolated and the data plotted using XL-Fit 4.0 software.
For 96 well culture plate experiments, c-Src 3T3 medium was supplemented with 10 mM HEPES buffer. […]
Seeded 96 well plates were allowed to attach overnight for 18-24 hours, either at 37° C. and 5% CO2 for HT-29 or at 37° C. and 10% CO2 for c-Src 3T3. Approx 18-24 hours after seeding, the initial growth of cells (T0) was determined for untreated cells using the BrdU assay. […] Plates were assayed for BrdU and the data analyzed as above for GI50. […]

GL261 glioma = test: intracranial GL261 glioma survival study; type: in vivo, C57BL/6 mice; settings: 5 mg/kg weekly oral
Experimental: as §4
The median survival range and the log-rank (Mantel-Cox) statistical test results comparing the survival distributions of the samples.

O=C(Cc1ccc(-c2ccccc2)cc1)NCc1cccc(F)c1 [Compound 2]
GI50 [1]: 410 nM | GI50 [2]: 890 nM

O=C(Cc1ccc(-c2ccc(OCCN3CCOCC3)cc2)cn1)NCc1cccc(F)c1 [Compound 38]
GI50 (c-Src 3T3) (c-Src 3T3 cells): inactive

O=C(Cc1ccc(-c2ccc(OCCN3CCOCC3)cc2)cn1)NCc1ccccc1 [Compound 134, 2-(5-(4-(2-morpholinoethoxy)phenyl)pyridin-2-yl)-N-benzylacetamide]
IC50 (Daoy): 13.6 nM | IC50 (SK-N-MC): 5.8 nM | IC50 (SW1088): 76.1 nM | IC50 (LN-18): 14.5 nM | IC50 (SK-N-FI): 1.7 nM | IC50 (U87): 33.1 nM | IC50 (GL261): 13.7 nM | Average weight at endpoint ([3]; 5 mg/kg (Compound 134, bid)): 14.3 g

CN1CCN(CCOc2ccc(-c3ccc(CC(=O)NCc4cccc(F)c4)nc3)c(F)c2)CC1 [Compound 137]
GI50 (HT29 cell line): 26 nM

Cn1nnc2c(C(N)=O)ncn2c1=O [Temodar ®, reference compound]
Median survival (GL261 glioma): 29 | survival Range (GL261 glioma): 26-29 | Average weight at endpoint ([3]; 5 mg/kg (Temodar, once weekly)): 13.3 g
